“And” between values parts separate entries of the source, which are not always exact repeats. Equal entries are not always repeated.
How the values were obtained:
[1] = Partition equilibrium (migration to aqueous phase) heptol/water under pressure and temperature, central composite design, potentiometric titration; assay type: physicochemical; settings: for Migration, Predicted: model value
Method: Three multivariate experimental designs (central composite designs) were performed in which the variables pressure (up to 1 MPa) and temperature (between 25° C. and 80° C.) were considered independent variables, with the migration of three acidic species as the response factor: benzoic, pentanoic and cyclohexanepentanoic acid. For this purpose, 5 levels were defined and gave rise to 10 experiments for each acidic species (Table 4), added to two control experiments (with higher pressure and temperature, as well as in the absence of pressure and at room temperature).
The experiments were performed with constant salinity of 3.5% (m·v^−1), constant heptol fraction (70:30, for heptane and toluene), and acidic species concentration of 0.03 M for benzoic and pentanoic acid, and 0.01 M for cyclohexanepentanoic acid. The results were evaluated with 95% confidence, using a response surface to estimate the maximum observable effect in each case, provided that the mathematical correlation was equal to or greater than R^2: 0.75.

[2] = Control experiments: availability of the species in alkaline aqueous medium without using the reactor; assay type: physicochemical; settings: acid solubilized directly in aqueous phase, no reactor
Method: Previously, the back titration procedure was internalized and optimized (Example 1), ensuring that the reproducibility of the measurements was adequate (standard deviation values below 10%, for example) and that the recoveries were close to what was expected based on the purity of the reagents (i.e., close to or above 90%). […] Control experiments were performed (measuring the availability of the species in an aqueous medium, without using the reactor) by solubilizing the organic acid directly in the aqueous phase and titrating a 10.0 mL aliquot; the same way, experiments were performed in the reactor based on the standardization of heptol and salinity already discussed (3.5%).

[3] = Partition equilibrium under the influence of salinity (NaCl), glass reactor, neutralization titration; assay type: physicochemical
Method: The variation in salinity (and its effect on acidic species) is due to the large variation in salinity found between the portions of bottom-hole water, middle-well water and surface water. Thus, systems with salinity (i.e., NaCl) between 3.5 and 30% (m·v^−1) were tested in a glass reactor, and neutralization titration was performed (in triplicate analysis), as previously described. Furthermore, the experimental results were generated in triplicate, using 99% NaCl (Sigma-Aldrich) with five acidic species.

[4] = Partition equilibrium in the presence of surfactants (TBA, CTA, TMA); assay type: physicochemical
Description: The presence of chemical compounds usually added in the chain of unit operations of oil extraction and production, such as demulsifiers and surfactants, can affect the partition equilibrium of species in this water/oil system. In order to understand the extent of this effect, as well as discern the relevance of the chemical structure on this effect, the following items were chosen: • Dissolvan 961 (Clariant), composed of oil hydrocarbons (CAS 918-811-1) and ethanol (CAS 64-17-5); • Dissolvan 974 (Clariant), composed of EO-PO block polymer poly adducts and Bisphenol-A-diglycidyl ether (CAS 68123-18-2) and ethanol (CAS 64-17-5); • Tetrabutylammonium chloride (CAS 1112-67-0), 97% purity; • Cetyltrimethylammonium chloride (CAS 112-02-7), 25% in water; and • Trimethylammonium chloride (CAS 593-81-7), 98% purity.
For this study, the experiments (in triplicate) used between 100.0 and 1000.0 mg·L^−1 of each compound, comparing the results with control tests (absence of the component), all with constant salinity at 3.5% (m·v^−1). Finally, neutralization titration with a standardized NaOH titrant solution was used to determine the effect on the partition equilibrium for four acidic species (the same as in the other examples, except for dicyclohexylacetic acid).
Considering the study with surfactants, the (individual) addition of three species to the control system was evaluated (tetrabutylammonium chloride (TBA), tetramethylammonium chloride (TMA) and cetyltrimethylammonium chloride (CTA)). For this purpose, the surfactants have distinct chemical structures, namely the size of the side chain, and their eventual effect on the partition equilibrium of the acidic species was evaluated.

[5] = Partition equilibrium under the influence of salinity (NaCl), glass reactor, neutralization titration; assay type: physicochemical; settings: Salinity 0 (%, m · m^−1) NaCl
[6] = Partition equilibrium in the presence of demulsifiers (Dissolvan 961, Dissolvan 974)
[7] = Partition equilibrium in reactor pressurized with CO2, in presence and absence of alkalinity (NaHCO3, Na2CO3), back titration
Method: In the initial tests, 100 mL of heptol and 300 mL of water (with or without salinity) were used, with the addition of acidic species in the organic phase, in order to verify migration to the aqueous phase. As a rule, the system was kept under agitation at 500 rpm for 8 min, followed by rest for 10 min and, finally, collection of 50.0 mL aliquots of the aqueous phase for titrimetric analysis.
A 316 stainless steel alloy reactor (Parr®) (capacity for 600 mL and operational up to 20 MPa pressure) was used. For this purpose, a temperature range between 25° C. and 80° C. and pressure between 0.1 MPa and 1.0 MPa were used, and the reactor was pressurized with CO2. Thus, the results were compared (in terms of migration of the acidic species (%, mol) by means of back titrations) and the influence of pressure and temperature on the partition was estimated, as well as possible synergistic effects with the sources of alkalinity added to the aqueous phase.

[8] = 52 °C, 0.5 MPa (experiments 9 and 10)

Compound: O=C(O)c1ccccc1 [Benzoic Acid, benzoic acid]
- Migration, Measured ([1]; 20 °C, 0.1 MPa (experiment 12, control)): 57.0 %, mol
- Migration, Increment (related to control) ([1]; 25 °C, 0.5 MPa (experiment 5)): 2.7 %, mol
- Migration, Measured ([1]; 25 °C, 0.5 MPa (experiment 5)): 58.6 %, mol
- Migration, Increment (related to control) ([1]; 38 °C, 0.25 MPa (experiment 1)): 6.9 %, mol
- Migration, Measured ([1]; 38 °C, 0.25 MPa (experiment 1), heptol 70:30, 3.5% salinity): 61.0 %, mol
- Migration, Increment (related to control) ([1]; 38 °C, 0.75 MPa (experiment 3)): 4.6 %, mol
- Migration, Measured ([1]; 38 °C, 0.75 MPa (experiment 3)): 59.7 %, mol
- Migration, Increment (related to control) ([1]; 52 °C, 0.1 MPa (experiment 7)): 16.4 %, mol
- Migration, Measured ([1]; 52 °C, 0.1 MPa (experiment 7)): 66.4 %, mol
- Migration, Increment (related to control) [1, 8]: 14.5 %, mol and 14.3 %, mol
- Migration, Measured ([1]; 52 °C, 0.5 MPa (experiments 9 and 10, centre point)): 65.3 %, mol and 65.2 %, mol
- Migration, Increment (related to control) ([1]; 52 °C, 1 MPa (experiment 8)): 16.8 %, mol
- Migration, Measured ([1]; 52 °C, 1 MPa (experiment 8)): 66.7 %, mol
- Migration, Increment (related to control) ([1]; 66 °C, 0.25 MPa (experiment 2)): 21.2 %, mol
- Migration, Measured ([1]; 66 °C, 0.25 MPa (experiment 2)): 69.2 %, mol
- Migration, Increment (related to control) ([1]; 66 °C, 0.75 MPa (experiment 4)): 19.8 %, mol
- Migration, Measured ([1]; 66 °C, 0.75 MPa (experiment 4)): 68.4 %, mol
- Migration, Increment (related to control) ([1]; 80 °C, 0.5 MPa (experiment 6)): 27.9 %, mol
- Migration, Measured ([1]; 80 °C, 0.5 MPa (experiment 6)): 73.0 %, mol
- Migration, Increment (related to control) ([1]; 80 °C, 1 MPa (experiment 11)): 26.3 %, mol
- Migration, Measured ([1]; 80 °C, 1 MPa (experiment 11, control)): 72.1 %, mol
- Migration, Predicted ([1]; 25 °C, 0.5 MPa (experiment 5)): 57.5 %, mol
- Migration, Predicted ([1]; 38 °C, 0.25 MPa (experiment 1)): 62.5 %, mol
- Migration, Predicted ([1]; 38 °C, 0.75 MPa (experiment 3)): 62 %, mol
- Migration, Predicted ([1]; 52 °C, 0.1 MPa (experiment 7)): 66.1 %, mol
- Migration, Predicted [1, 8]: 66.6 %, mol
- Migration, Predicted ([1]; 52 °C, 1 MPa (experiment 8)): 65.5 %, mol
- Migration, Predicted ([1]; 66 °C, 0.25 MPa (experiment 2)): 69.8 %, mol
- Migration, Predicted ([1]; 66 °C, 0.75 MPa (experiment 4)): 69.8 %, mol
- Migration, Predicted ([1]; 80 °C, 0.5 MPa (experiment 6)): 72.7 %, mol
- Migration, Predicted ([1]; 80 °C, 1 MPa (experiment 11)): 66.6 %, mol
- Availability (reference value) ([2]; Na2CO3 + NaHCO3 (3.48×10^−5 mol)): 72.2 % mol
- Availability (reference value) ([2]; NaHCO3 (3.45×10^−5 mol)): 83.1 % mol
- Salting out effect (reduction in the number of moles contained in the aqueous phase) ([3]; 30% (m·v^−1) NaCl versus tests without salinity): approximately 400%
- Migration ([3]; Salinity 3.5 (%, m · m^−1) NaCl): 83.0 %, mol
- Migration ([3]; Salinity 18.0 (%, m · m^−1) NaCl): 41.0 %, mol
- Migration ([3]; Salinity 30.0 (%, m · m^−1) NaCl): 22.5 %, mol
- Migration ([3]; Salinity 30.0 (%, m · m^−1) NaCl, listed as benzoic acid): 22.51 %, mol
- Migration ([4]; Absence of surfactant, salinity 3.5%): 82.0 %, mol
- Migration ([4]; CTA100 (cetyltrimethylammonium chloride 100 mg · L^−1)): 57.1 %, mol
- Migration ([4]; CTA1000 (1000 mg · L^−1)): 66.3 %, mol
- Migration ([4]; TBA100 (tetrabutylammonium chloride 100 mg · L^−1)): 55.5 %, mol
- Migration ([4]; TBA1000 (1000 mg · L^−1)): 54.8 %, mol
- Migration ([4]; TMA100 (trimethylammonium chloride 100 mg · L^−1)): 63.4 %, mol
- Migration ([4]; TMA1000 (1000 mg · L^−1)): 63.7 %, mol
- Increase in migration to the aqueous phase with CTA ([4]; surfactant CTA, 1000 mg·L^−1): ~10%
- Effect of TBA on migration to the aqueous phase ([4]; surfactant TBA, different concentrations): no significant effect
- Increase in affinity for the hydrophilic phase with TMA ([4]; surfactant TMA, from 100 mg·L^−1): approximately 10%
- Migration [5]: 82.9 %, mol
- Migration ([6]; Absence of ions (no demulsifier), salinity 3.5%): 82.0 %, mol
- Migration ([6]; D961 50 mg · L^−1): 62.3 %, mol
- Migration ([6]; D961 100 mg · L^−1): 70.3 %, mol
- Migration ([6]; D961 1000 mg · L^−1): 68.4 %, mol
- Migration ([6]; D974 50 mg · L^−1): 63.1 %, mol
- Migration ([6]; D974 100 mg · L^−1): 57.3 %, mol
- Migration ([6]; D974 1000 mg · L^−1): 59.7 %, mol
- Migration ([7]; 25° C. and 1.0 MPa CO2, no alkalinity): 64.4 % mol
- Migration ([7]; 80° C. and 1.0 MPa CO2, no alkalinity): 59.3 % mol
- Migration ([7]; Na2CO3 + NaHCO3, 25° C. and 0.1 MPa): 49.3 % mol
- Migration ([7]; Na2CO3 + NaHCO3, 25° C. and 1.0 MPa CO2): 100 % mol
- Migration ([7]; Na2CO3 + NaHCO3, 80° C. and 1.0 MPa CO2): 88.3 % mol
- Migration ([7]; NaHCO3, 25° C. and 0.1 MPa): 53.6 % mol
- Migration ([7]; NaHCO3, 25° C. and 1.0 MPa CO2): 93.3 % mol
- Migration ([7]; NaHCO3, 80° C. and 1.0 MPa CO2): 88.9 % mol and 88.6 % mol
- Migration ([7]; Reference (heptol + 3.5% NaCl), no alkalinity): 82.0±3.0 % mol and 82 % mol

— patent publication US20250231157A1, “METHOD FOR DETERMINING THE PARTITION OF NAPHTHENIC ACIDS FROM A PRODUCTION WATER MIMICKING SYSTEM AND MIMICKING SYSTEM” (PETRÓLEO BRASILEIRO S.A. – PETROBRAS, priority 2023, published 2025)
